# Experimental data reported in PMC7979765, “trans-Translation inhibitors bind to a novel site on the ribosome and clear Neisseria gonorrhoeae in vivo” (Nature Communications, 2021).
# Like-named read-outs stand apart in the source and are kept apart here.
# How the values were obtained:
# [1] = Liver microsome stability, murine; type: in vitro ADME, mouse; settings: for half-life: mouse, read-out: MMS / Microsomal Stability (t1/2), murine; for half-life / Average MLMS t½ / MLMS t½: murine liver microsomes; for Average MLMS t½: average of replicates; for MLMS t½: individual replicates
# In short: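 Compounds incubated with liver microsomes plus NADPH over 30 min; parent remaining quantified by reverse-phase LC/MS. Half-life from linear regression over several time points.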
# Acinetobacter baumannii = test: MIC, microbroth dilution; type: cell-based
# Solubility (formulated) = type: physicochemical
# Klebsiella pneumoniae = test: MIC, microbroth dilution; type: cell-based
# Histamine H1 = target: T1, Histamine H1 (Homo sapiens, UniProt P35367); test: Receptor Profiling 239610; type: binding
# T1 construct: purchased Eurofins Discovery Services (Panlabs safety panel)
# Description: (§1) Several in vitro selectivity assays were performed at Eurofins Discovery Services using established methods and controls that behaved as expected (Supplementary Tables 5 and 6). […] For receptor panel profiling, MBX-4132 was evaluated at 10 μM and activity of >50% (agonist or antagonist; note that negative % inhibition indicates agonism) was scored as active.
# Vasopressin V1A = target: T2, Vasopressin V1A (Homo sapiens, UniProt P37288); test: Receptor Profiling 287530; type: binding
# T2 construct: purchased Eurofins Discovery Services 287530
# Description: as §1
# Potassium Channel [KA] = test: Receptor Profiling 265510; type: binding, rat; settings: 10 μM
# Description: as §1
# Cannabinoid CB2 = target: T3, Cannabinoid CB2 (Homo sapiens, UniProt P34972); test: Receptor Profiling 217100; type: binding
# T3 construct: purchased Eurofins Discovery Services (Panlabs safety panel)
# Description: as §1
# [2] = target: T4, Serotonin (5-hydroxytryptamine) 5-HT2B (Homo sapiens, UniProt P41595); test: Receptor Profiling 271700; type: binding
# T4 construct: Eurofins Discovery Services (contract assay) 271700
# Description: as §1
# CYP1A = test: Cyp inhibition assay 4876; type: in vitro ADME, human; settings: catalog reference 4876
# Description: as §1
# [3] = target: T5, Nicotinic Acetylcholine α4β2, Cytisine (Homo sapiens, UniProt P17787+P43681); test: Receptor Profiling 299031; type: binding
# T5 construct: purchased Eurofins Discovery Services (Panlabs safety panel)
# Description: as §1
# [4] = target: T6, Serotonin (5-hydroxytryptamine) 5-HT1A (Homo sapiens, UniProt P08908); test: Receptor Profiling 271110; type: binding
# T6 construct: purchased Eurofins Discovery Services (Panlabs safety panel)
# Description: as §1
# Glutamate, NMDA, Agonism = test: Receptor Profiling 232810; type: binding, rat; settings: 10 μM
# Description: as §1
# Kir2.1 = target: T7, Kir2.1 (Homo sapiens, UniProt P63252); test: Cardiac Ion Channel Panel; type: cell-based; settings: Kir2.1 antagonist; Peak $ End; CYL8032QP2DR; read-out: IC50 (µM) reported
# T7 construct: Eurofins Discovery Services (contract assay) CYL8032QP2DR
# Description: as §1
# Nav1.5 late current = target: T8, Nav1.5 late current (Homo sapiens, UniProt Q14524); test: Cardiac Ion Channel Panel; type: cell-based
# T8 construct: Eurofins Discovery Services (contract assay) CYL8004QP2DR; CYL7004QP1DR; CYL7004QP2DR
# Description: as §1
# hERG = target: T9, hERG (Homo sapiens, UniProt Q12809); test: Cardiac Ion Channel Panel; type: cell-based; settings: hERG antagonist; CYL8038QP2DR; read-out: IC50 (µM) reported
# T9 construct: Eurofins Discovery Services (contract assay) CYL8038QP2DR
# Description: as §1
# Kv4.3/ChIP2 = target: T10, Kv4.3/ChIP2 (Homo sapiens, UniProt Q9UK17); test: Cardiac Ion Channel Panel; type: cell-based; settings: Kv4.3/ChIP2 antagonist; Peak $ End; CYL8069QP2DR; read-out: IC50 (µM) reported
# T10 construct: Eurofins Discovery Services (contract assay) CYL8069QP2DR
# Description: as §1
# Nav1.5 = target: T11, Nav1.5 (Homo sapiens, UniProt Q14524); test: Cardiac Ion Channel Panel; type: cell-based
# T11 construct: Eurofins Discovery Services (contract assay) CYL8004QP2DR; CYL7004QP1DR; CYL7004QP2DR
# Description: as §1
# Opiate Delta1 (OP1, DOP) = target: T12, Opiate Delta1 (OP1, DOP) (Homo sapiens, UniProt P41143); test: Receptor Profiling 260130; type: binding
# T12 construct: purchased Eurofins Discovery Services (Panlabs safety panel)
# Description: as §1
# Adrenergic β1 = target: T13, Adrenergic β1 (Homo sapiens, UniProt P08588); test: Receptor Profiling 204010; type: binding
# T13 construct: purchased Eurofins Discovery Services (Panlabs safety panel)
# Description: as §1
# [5] = target: T14, Cholinesterase, Acetyl, ACES (Homo sapiens, UniProt P22303); test: Receptor Profiling 104010; type: biochemical
# T14 construct: Eurofins Discovery Services (contract assay) 104010
# Description: as §1
# [6] = target: T15, Serotonin (5-hydroxytryptamine) 5-HT2A (Homo sapiens, UniProt P28223); test: Receptor Profiling 271650; type: binding
# T15 construct: purchased Eurofins Discovery Services (Panlabs safety panel)
# Description: as §1
# Muscarinic M2 = target: T16, Muscarinic M2 (Homo sapiens, UniProt P08172); test: Receptor Profiling 252710; type: binding
# T16 construct: purchased Eurofins Discovery Services (Panlabs safety panel)
# Description: as §1
# [7] = test system: GABAA, Flunitrazepam, Central; test: Receptor Profiling 226600; type: binding, rat; settings: 10 μM
# Description: as §1
# CYP3A = CYP3A (Homo sapiens, UniProt P08684); test: Cyp inhibition assays 4873, 4872; type: in vitro ADME
# Description: as §1
# [8] = Acinetobacter baumannii ATCC 19606, replicates
# [9] = Acinetobacter baumannii, ATCC19606, Acinetobacter baumannii ATCC 19606, replicates, read-out: MIC
# [10] = Acinetobacter baumannii, ATCC19606, strain ATCC 19606, read-out: MIC
# [11] = Klebsiella pneumoniae ATCC 13883, replicates
# [12] = Klebsiella pneumoniae, ATCC13883, strain ATCC 13883, read-out: MIC
# T8 sequence (Q14524 whole entry): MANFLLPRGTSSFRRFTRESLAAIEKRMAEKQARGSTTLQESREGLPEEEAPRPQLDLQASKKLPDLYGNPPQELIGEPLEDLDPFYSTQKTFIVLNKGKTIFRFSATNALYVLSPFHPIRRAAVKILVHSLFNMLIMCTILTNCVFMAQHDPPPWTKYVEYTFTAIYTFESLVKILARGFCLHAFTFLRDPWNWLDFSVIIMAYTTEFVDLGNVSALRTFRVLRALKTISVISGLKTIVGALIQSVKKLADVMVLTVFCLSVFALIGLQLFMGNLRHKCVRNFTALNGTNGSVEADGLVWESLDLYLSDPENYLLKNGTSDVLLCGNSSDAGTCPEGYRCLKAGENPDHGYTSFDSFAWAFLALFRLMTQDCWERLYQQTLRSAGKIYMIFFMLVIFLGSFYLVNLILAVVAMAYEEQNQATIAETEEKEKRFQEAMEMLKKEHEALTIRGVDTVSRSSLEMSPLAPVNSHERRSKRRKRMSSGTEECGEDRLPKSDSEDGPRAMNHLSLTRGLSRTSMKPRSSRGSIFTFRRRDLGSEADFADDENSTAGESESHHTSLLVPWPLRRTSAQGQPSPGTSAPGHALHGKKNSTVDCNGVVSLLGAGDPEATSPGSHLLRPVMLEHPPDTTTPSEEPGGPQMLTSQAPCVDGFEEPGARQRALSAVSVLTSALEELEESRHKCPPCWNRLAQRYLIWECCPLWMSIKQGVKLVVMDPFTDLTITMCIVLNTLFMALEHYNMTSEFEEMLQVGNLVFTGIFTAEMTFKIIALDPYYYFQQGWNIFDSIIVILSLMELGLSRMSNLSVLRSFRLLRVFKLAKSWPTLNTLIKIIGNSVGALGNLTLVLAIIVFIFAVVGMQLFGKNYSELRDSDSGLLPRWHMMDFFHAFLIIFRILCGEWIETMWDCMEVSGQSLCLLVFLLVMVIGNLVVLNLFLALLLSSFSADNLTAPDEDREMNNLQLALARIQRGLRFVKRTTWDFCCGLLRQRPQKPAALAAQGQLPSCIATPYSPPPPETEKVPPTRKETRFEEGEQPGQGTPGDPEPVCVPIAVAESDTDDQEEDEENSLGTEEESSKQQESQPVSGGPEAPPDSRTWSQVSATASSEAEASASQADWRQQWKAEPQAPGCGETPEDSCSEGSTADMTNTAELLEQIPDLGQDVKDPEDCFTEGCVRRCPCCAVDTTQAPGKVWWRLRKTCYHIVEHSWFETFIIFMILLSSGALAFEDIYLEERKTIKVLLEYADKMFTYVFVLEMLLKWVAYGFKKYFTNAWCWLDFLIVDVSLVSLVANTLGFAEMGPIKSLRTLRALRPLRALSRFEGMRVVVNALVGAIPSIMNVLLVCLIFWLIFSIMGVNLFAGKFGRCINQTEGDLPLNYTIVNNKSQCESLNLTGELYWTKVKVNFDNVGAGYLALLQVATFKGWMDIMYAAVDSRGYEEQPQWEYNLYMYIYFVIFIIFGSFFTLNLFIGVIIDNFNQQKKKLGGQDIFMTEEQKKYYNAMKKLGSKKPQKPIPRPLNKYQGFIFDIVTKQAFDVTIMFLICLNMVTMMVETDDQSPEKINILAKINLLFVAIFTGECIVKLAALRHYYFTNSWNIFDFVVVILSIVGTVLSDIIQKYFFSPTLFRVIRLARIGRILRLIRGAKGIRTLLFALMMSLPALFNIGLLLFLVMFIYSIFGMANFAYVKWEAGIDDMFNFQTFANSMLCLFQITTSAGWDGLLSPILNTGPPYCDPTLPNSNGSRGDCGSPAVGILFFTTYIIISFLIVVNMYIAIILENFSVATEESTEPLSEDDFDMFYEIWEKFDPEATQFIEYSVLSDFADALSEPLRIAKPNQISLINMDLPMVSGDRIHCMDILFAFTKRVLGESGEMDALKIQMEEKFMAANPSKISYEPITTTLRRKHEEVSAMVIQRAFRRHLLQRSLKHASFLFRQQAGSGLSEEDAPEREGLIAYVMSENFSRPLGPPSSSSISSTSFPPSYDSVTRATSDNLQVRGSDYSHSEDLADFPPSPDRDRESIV
# Sequence of CYP3A (P08684 2-503): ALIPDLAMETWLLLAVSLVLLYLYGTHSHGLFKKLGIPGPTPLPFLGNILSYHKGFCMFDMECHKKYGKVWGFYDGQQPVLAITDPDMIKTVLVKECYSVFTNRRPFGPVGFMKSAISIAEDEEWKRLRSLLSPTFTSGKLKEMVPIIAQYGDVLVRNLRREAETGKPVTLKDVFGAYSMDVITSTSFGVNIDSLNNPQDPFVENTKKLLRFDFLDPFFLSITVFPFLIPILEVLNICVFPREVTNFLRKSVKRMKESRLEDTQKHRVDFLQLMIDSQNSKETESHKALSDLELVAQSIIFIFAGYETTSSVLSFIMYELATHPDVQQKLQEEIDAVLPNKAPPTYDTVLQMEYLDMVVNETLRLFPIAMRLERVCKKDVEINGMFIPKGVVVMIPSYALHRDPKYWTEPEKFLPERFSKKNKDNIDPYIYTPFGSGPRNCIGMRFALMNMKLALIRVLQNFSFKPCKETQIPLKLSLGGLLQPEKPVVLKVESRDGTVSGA
# T2 sequence (P37288 whole entry): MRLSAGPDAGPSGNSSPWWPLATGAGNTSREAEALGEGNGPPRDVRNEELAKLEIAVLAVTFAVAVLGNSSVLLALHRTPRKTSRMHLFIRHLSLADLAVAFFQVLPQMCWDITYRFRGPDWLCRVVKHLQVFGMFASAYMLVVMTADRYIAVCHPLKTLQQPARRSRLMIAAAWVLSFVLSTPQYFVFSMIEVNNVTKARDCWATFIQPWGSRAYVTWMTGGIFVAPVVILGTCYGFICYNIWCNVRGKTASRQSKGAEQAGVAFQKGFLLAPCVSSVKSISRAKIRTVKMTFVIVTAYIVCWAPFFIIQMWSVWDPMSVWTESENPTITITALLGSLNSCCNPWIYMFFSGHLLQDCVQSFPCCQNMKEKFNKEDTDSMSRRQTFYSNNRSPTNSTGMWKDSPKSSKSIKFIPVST
# T13 sequence (P08588 whole entry): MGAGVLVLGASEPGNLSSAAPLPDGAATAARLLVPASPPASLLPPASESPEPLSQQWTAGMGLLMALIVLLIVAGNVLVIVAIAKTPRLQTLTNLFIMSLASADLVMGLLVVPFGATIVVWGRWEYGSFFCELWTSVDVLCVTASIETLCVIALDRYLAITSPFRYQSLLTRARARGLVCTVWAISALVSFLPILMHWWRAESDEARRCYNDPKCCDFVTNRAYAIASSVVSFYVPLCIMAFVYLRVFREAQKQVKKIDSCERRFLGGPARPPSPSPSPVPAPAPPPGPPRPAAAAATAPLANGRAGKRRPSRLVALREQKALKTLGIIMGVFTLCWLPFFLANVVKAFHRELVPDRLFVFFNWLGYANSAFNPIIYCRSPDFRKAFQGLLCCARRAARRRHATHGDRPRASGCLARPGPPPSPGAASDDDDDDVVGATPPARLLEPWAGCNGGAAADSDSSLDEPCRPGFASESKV
# T3 sequence (P34972 whole entry): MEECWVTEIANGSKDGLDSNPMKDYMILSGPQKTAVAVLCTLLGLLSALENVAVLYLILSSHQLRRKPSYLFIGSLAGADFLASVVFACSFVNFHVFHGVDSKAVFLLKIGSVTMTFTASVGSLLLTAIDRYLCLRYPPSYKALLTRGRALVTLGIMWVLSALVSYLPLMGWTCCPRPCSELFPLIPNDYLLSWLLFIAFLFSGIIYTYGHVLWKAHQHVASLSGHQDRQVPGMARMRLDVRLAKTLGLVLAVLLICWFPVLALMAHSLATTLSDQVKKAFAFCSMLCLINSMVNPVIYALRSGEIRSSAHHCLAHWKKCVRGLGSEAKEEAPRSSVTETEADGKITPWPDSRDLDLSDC
# T9 sequence (Q12809 whole entry): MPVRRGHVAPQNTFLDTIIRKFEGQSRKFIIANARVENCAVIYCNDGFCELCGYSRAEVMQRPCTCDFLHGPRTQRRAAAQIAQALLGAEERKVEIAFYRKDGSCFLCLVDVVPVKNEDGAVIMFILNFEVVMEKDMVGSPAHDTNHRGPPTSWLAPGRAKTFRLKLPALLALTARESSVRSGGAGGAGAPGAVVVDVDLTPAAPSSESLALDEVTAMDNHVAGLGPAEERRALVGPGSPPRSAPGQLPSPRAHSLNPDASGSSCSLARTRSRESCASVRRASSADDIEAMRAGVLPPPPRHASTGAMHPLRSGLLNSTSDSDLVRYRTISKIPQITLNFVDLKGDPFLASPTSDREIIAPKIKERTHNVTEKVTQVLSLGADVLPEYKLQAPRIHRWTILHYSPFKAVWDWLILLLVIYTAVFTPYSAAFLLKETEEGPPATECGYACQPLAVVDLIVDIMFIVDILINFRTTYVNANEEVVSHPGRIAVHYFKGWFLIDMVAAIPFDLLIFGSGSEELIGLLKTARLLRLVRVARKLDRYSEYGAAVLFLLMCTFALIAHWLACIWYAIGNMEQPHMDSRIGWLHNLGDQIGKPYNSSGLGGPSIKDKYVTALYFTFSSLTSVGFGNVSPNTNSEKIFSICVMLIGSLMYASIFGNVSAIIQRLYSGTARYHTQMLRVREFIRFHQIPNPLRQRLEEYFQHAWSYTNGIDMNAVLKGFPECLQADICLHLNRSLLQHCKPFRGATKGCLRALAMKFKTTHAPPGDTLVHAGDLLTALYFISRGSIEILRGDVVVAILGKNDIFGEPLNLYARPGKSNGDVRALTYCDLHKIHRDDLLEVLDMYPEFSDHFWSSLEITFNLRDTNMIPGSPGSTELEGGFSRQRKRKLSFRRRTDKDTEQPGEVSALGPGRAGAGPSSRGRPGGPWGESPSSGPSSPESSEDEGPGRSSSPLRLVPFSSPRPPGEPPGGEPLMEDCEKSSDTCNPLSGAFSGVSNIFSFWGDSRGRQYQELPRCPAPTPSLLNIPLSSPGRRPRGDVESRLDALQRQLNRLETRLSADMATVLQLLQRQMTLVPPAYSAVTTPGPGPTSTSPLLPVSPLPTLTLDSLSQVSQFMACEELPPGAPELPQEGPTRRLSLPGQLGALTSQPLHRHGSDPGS
smiles,measurement,setting,value
"O=C(Nc1nnc(-c2ccc(F)cc2)o1)c1ccc(Cl)cc1 [KKL-35, 4-chloro-N-(5-(4-fluorophenyl)-1,3,4-oxadiazol-2-yl)benzamide]",liver microsome stability (in words),[1],rapidly hydrolyzed
same,half-life,[1],< 0.0833 h
same,Average MLMS t½,[1],<0.083 h
same,MLMS t½,[1],<0.083 h
same,MIC,Acinetobacter baumannii; [8],≥32 µg/mL
same,MIC,Acinetobacter baumannii; [9],≥ 32 µg/mL
same,MIC,Acinetobacter baumannii; [10],> 32 µg/mL
same,Solubility,Solubility (formulated),1000 µg/mL
same,MIC,Klebsiella pneumoniae; [11],≥32 µg/mL
same,MIC,Klebsiella pneumoniae; [12],≥ 32 µg/mL
O=C(Nc1nnc(-c2ccc(F)cc2)o1)N1CCc2ccccc2C1 [MBX-4132],inhibition at 10 µM,Histamine H1,11%
same,inhibition at 10 µM,Vasopressin V1A,-4%
same,% inhibition,Potassium Channel [KA],-2%
same,inhibition at 10 µM,Cannabinoid CB2,-4%
same,inhibition at 10 µM,[2],44%
same,"Microsomal stability (t½, min) Murine","[1]; Reported value, Eurofins",>120 min
same,half-life,[1],> 2 h
same,Average MLMS t½,[1],>2 h
same,MLMS t½,[1],>2 h
same,pIC50 (µM) reported,CYP1A,No activity
same,inhibition at 10 µM,[3],-5%
same,inhibition at 10 µM,[4],30%
same,% inhibition,"Glutamate, NMDA, Agonism",8%
same,IC50,Kir2.1,> 30 µM
same,IC50,Nav1.5 late current,> 30 µM
same,IC50,"Nav1.5 late current; read-out: Est. IC50, Antagonist mode",> 30 µM
same,IC50,"Nav1.5 late current; read-out: IC50 (µM) reported, Nav1.5 late current agonist, CYL7004QP1DR",> 30 µM
same,IC50,"Nav1.5 late current; read-out: IC50 (µM) reported, Nav1.5 late current antagonist, CYL7004QP2DR",> 30 µM
same,IC50,hERG,> 30 µM
same,IC50,Kv4.3/ChIP2,> 30 µM
same,IC50,Nav1.5,> 30 µM
same,inhibition at 10 µM,"Opiate Delta1 (OP1, DOP)",5%
same,MIC,Acinetobacter baumannii; [8],≥34 µg/mL
same,MIC,Acinetobacter baumannii; [9],≥ 34 µg/mL
same,MIC,Acinetobacter baumannii; [10],≥ 34 µg/mL
same,inhibition at 10 µM,Adrenergic β1,-8%
same,inhibition at 10 µM,[5],6%
same,inhibition at 10 µM,[6],18%
same,inhibition at 10 µM,Muscarinic M2,7%
same,Solubility,Solubility (formulated),5000 µg/mL
same,MIC,Klebsiella pneumoniae; [11],≥34 µg/mL
same,MIC,Klebsiella pneumoniae; [12],≥ 34 µg/mL
same,% inhibition,[7],3%
same,pIC50 (µM) reported,"CYP3A; CYP3A midazolam, catalog reference 4873",No activity
same,IC50,"CYP3A; human, probe testosterone",> 100 µM
